Test results reported in ChEMBL document CHEMBL5724796, “Tm Shift (DSF) assay results for EUbOPEN Chemogenomics Library” (2024).
Residues, ends and D or L forms follow the SMILES beside them. *: point of attachment. CH2Cl = ClC*

Assays:
Peregrin (Homo sapiens) = molecular target: T1, Peregrin (Homo sapiens) (UniProt P55201); details: Compound concentration 20.0 uM
T1 sequence (whole entry): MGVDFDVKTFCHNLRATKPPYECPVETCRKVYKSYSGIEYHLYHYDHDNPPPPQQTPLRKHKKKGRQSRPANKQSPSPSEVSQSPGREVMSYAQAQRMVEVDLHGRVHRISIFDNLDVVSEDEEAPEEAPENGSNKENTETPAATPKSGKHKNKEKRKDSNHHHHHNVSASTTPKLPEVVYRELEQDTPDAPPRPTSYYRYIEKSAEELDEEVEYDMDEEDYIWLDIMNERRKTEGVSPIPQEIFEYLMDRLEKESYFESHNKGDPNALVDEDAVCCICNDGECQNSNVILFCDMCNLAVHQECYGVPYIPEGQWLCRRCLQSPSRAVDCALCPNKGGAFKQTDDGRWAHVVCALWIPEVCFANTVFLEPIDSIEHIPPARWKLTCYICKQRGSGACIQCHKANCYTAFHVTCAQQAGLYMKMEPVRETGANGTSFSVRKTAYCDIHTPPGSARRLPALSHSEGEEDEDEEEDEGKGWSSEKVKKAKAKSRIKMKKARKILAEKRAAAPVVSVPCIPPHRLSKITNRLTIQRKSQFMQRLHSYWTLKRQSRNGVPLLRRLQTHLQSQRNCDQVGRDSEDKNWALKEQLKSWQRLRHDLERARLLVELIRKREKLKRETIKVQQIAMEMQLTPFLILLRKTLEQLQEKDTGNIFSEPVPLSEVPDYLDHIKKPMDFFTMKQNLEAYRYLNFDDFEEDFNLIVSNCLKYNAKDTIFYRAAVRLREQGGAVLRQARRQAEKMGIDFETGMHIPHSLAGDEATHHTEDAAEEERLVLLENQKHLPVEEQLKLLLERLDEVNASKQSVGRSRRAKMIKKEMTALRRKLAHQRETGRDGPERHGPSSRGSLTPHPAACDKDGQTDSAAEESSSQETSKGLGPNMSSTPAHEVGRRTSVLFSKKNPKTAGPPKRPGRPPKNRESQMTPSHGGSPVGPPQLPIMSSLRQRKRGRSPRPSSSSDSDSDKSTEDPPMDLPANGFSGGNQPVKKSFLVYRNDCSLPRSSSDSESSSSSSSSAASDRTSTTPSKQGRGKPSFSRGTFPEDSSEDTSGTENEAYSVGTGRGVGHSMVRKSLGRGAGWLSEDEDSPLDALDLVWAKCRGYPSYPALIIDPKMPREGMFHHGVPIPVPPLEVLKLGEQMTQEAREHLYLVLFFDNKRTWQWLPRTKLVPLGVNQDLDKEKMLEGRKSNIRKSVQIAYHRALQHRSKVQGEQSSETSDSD

[1] = molecular target: Fibroblast growth factor receptor 2 (Homo sapiens) (UniProt P21802); details: Compound concentration 20.0 uM
Sequence of Fibroblast growth factor receptor 2 (Homo sapiens) (P21802 22-821 limits assumed): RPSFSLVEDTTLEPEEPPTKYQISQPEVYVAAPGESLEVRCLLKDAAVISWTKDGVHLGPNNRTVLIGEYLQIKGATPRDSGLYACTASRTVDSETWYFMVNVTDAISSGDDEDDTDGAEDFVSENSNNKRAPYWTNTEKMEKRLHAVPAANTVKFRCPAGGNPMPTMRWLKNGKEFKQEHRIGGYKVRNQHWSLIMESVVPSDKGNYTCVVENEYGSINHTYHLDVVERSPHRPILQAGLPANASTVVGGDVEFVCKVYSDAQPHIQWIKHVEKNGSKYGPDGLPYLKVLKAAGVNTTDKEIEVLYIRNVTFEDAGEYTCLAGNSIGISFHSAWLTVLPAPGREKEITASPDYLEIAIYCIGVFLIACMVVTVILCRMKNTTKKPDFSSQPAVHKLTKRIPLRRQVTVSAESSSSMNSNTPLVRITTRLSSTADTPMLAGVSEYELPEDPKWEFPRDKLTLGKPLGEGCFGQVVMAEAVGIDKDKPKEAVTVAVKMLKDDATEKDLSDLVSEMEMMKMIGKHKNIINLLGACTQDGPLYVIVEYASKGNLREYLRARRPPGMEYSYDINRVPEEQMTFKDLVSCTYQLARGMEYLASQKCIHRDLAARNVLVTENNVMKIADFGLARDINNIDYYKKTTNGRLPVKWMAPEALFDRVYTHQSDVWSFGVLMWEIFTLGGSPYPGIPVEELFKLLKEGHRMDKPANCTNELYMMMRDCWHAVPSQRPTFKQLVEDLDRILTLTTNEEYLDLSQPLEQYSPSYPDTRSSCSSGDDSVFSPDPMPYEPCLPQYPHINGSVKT
Description: Thermal Shift Assay. Domain: start/stop: T457-E768

Compound | ΔTm (Peregrin (Homo sapiens)) [°C] | ΔTm [1] [°C]
CCOC(=O)c1ccc(-c2ccc(OC(=O)N(C)Cc3cccc(-c4ccncc4)c3)cc2)cc1 | 3.12 | -0.28
O=c1[nH][nH]c(=O)c2cc(OCC3CCCCC3)ccc12 | 2.63 | 1.11
Cn1c(=O)cc(N2CCC[C@@H](N)C2)n(Cc2ccccc2C#N)c1=O | 2.35 | 0.81
CC(=O)N[C@@H](CC(C)C)C(=O)N[C@@H](CCC(=O)O)C(=O)N[C@H](C(=O)N[C@H](C=O)CC(=O)O)C(C)C (Ac-LEVD-aldehyde) | -1.25 | 0.88
CS(=O)(=O)c1ccc(Oc2cc(F)cc(C#N)c2)c2c1[C@H](O)[C@H](F)[C@@H]2F | 2.16 | 0.61
O=C1C(P(=O)(O)O)CC(O)N1O (configuration not stated) | 1.52 | -0.05
CN1C[C@@H]2[C@H](C1)[C@H]2CN(Cc1ccc(F)c(Cl)c1)C(=O)c1cn(C)cn1 | 1.67 | 0.05
CS(=O)(=O)Nc1ccc(-c2coc3cc(OCc4cccc(C(=O)O)c4)ccc3c2=O)cc1 | 1.08 | -0.06
CCC[C@@H]1CNCc2c1[nH]c(=O)c(C#N)c2N1CCC2(CC1)CC2 | -1.25 | 0.64
Cc1cc(C(=O)CN2CCC(O)CC2)c(C)n1-c1ccc(C#N)cc1 | 1.04 | -0.17
CNC(=O)c1cnc(N2CCC[C@H](N)C2)nc1Nc1cc(C(C)C)nc(C(C)C)c1 | -0.82 | -3.52
CC(=O)N1CCC(Nc2cc(C(=O)NC[C@H](O)CN3CCc4ccccc4C3)ncn2)CC1 | -1.13 | 0.28
CC(=O)N[C@@H](Cc1ccccc1)C(=O)N[C@@H](CC(C)C)C(=O)N[C@H](C(=O)N[C@@H](CC(=O)O)C(=O)CCl)[C@@H](C)O (Ac-FLTD-CH2Cl) | -1.18 | 0.77
CCn1c(=O)c(C)cn(Cc2nnc(-c3ccc(F)c(OC)c3F)s2)c1=O | -0.72 | 0.75
C[C@]1(c2nc3c(C(N)=O)cccc3[nH]2)CCCN1 | 1.27 | -0.4
CNc1nccc(CN(CC2CCNCC2)S(=O)(=O)c2ccc(S(=O)(=O)N(Cc3ccc(Cl)cc3)C3CCCC3)cc2)n1 | 1.3 | -0.24

Compound | ΔTm (Peregrin (Homo sapiens)) [°C] | ΔTm [1] [°C]
OC[C@H]1O[C@@H](c2ccc(Cl)c(Cc3ccc(O[C@H]4CCOC4)cc3)c2)[C@H](O)[C@@H](O)[C@@H]1O | 1.01 | -0.41
O=C(CCl)Nc1ccc(S(=O)(=O)c2ccc(NC(=O)CCl)cc2)cc1 | 0.78 | 0.88
CS(=O)(=O)n1cc2c(n1)CN([C@H]1CO[C@H](c3cc(F)ccc3F)[C@@H](N)C1)C2 | 1.17 | -0.38
CCCSc1nc(N[C@@H]2C[C@H]2c2ccc(F)c(F)c2)c2nnn([C@@H]3C[C@H](OCCO)[C@@H](O)[C@H]3O)c2n1 | 0.55 | -0.32
CCCN1CCN(c2ccc(C(=O)NC3(C(=O)NCC#N)CCCCC3)cc2)CC1 | -1.09 | 0.76
O=C(O)Cc1ccc(Cc2cc(-c3cccc(Cl)c3)nc(C(F)(F)F)c2)cc1 | -0.4 | -0.76
CN1CC(=O)N2[C@H](c3ccc4c(c3)OCO4)c3[nH]c4ccccc4c3C[C@@H]2C1=O | 0.06 | -0.7
Cc1noc2c1-c1ccccc1C(c1ccc(Cl)cc1)=N[C@H]2CC(N)=O | 2.09 | -0.03
Cc1cc(-c2ccc3nc(C4CCOCC4)n(CCOC(F)(F)F)c3c2)cn(C)c1=O | 4.67 | 0.33
CC(C)c1cc(C(=O)N2Cc3ccc(CN4CCN(C)CC4)cc3C2)c(O)cc1O | -1.35 | 0.44
Cn1ncc(-c2nn(C)c3ncnc(N4CCC4)c23)c1-c1ccc(C(F)(F)F)cc1 | 3.7 | 0.04
COC1CCN(C(=O)c2cc(Cc3n[nH]c(=O)c4ccccc34)ccc2F)CC1 | 1.51 | -0.21
Cc1c(CN2CCC(Nc3ncnc4sc(CC(F)(F)F)cc34)CC2)ccc2c1cc(C#N)n2Cc1cn[nH]c1 | 2.02 | -1.27
C[C@@H](Oc1ccc(S(C)(=O)=O)cc1C(=O)N1C[C@@H]2C[C@]2(c2cc(C(F)(F)F)on2)C1)C(F)(F)F | 0.16 | -0.81
O=C(c1cc(Cc2n[nH]c(=O)c3ccccc23)ccc1F)N1CC(CNC2CC2)C1 | -0.32 | -0.3
